Format in all cases: biochemical
The target of one experiment is FXa (Homo sapiens, UniProt P00742). The experiment can be described thus: Determination of selectivity: FXa inhibition, chromogenic substrate S2765 assay. The settings on record: fold selectivity for FXIIa over FXa. The procedure, abridged: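 Human FXa (5 nM) preincubated with compound (top 500 μM, 5% DMSO) 10 min at 37 °C in 50 mM Tris, 137 mM NaCl pH 7.4, then S2765 ([…]) added; A405 kinetics over 3 h at 37 °C. IC50 from initial rates, converted to Ki via Cheng-Prusoff.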
FXa, sequence (P00742 235-488 limits assumed): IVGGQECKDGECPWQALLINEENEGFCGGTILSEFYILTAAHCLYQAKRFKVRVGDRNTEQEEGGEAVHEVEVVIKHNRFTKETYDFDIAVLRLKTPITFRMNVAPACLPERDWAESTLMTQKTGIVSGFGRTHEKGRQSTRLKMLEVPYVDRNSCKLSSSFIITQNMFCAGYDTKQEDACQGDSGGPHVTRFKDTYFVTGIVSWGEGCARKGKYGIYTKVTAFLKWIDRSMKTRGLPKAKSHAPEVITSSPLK
FXa, sequence (P00742 41-179 partner limits assumed): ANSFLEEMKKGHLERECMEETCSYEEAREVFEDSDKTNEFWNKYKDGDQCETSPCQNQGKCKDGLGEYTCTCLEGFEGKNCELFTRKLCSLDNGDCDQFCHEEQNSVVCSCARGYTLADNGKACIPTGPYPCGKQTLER

A further experiment concerns the target T1, FXIIa (Homo sapiens, UniProt P00748).
T1 sequence (P00748 373-615 limits assumed): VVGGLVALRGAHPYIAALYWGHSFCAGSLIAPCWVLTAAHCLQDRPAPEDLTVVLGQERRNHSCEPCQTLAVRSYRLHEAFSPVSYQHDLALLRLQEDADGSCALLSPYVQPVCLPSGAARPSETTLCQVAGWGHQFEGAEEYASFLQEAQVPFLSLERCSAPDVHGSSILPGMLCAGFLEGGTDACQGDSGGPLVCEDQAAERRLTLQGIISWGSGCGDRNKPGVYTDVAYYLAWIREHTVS
T1 sequence (P00748 20-372 partner limits assumed): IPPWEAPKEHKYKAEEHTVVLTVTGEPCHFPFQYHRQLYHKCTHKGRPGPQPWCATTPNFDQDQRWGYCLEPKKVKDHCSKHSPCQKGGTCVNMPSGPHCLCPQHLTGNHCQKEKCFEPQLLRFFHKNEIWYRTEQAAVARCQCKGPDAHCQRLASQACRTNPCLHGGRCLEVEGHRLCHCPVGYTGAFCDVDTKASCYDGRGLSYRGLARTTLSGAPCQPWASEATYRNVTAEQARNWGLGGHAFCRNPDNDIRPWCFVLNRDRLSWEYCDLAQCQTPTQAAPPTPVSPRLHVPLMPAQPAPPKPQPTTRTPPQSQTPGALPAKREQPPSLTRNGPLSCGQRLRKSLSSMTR
Kind of experiment: Determination of Factor XIIa inhibition, chromogenic substrate S-2302 assay. Particulars: human FXIIa alpha. The procedure, abridged: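 FXIIa (10 nM) preincubated with compound 10 min at 37° C. in 50 mM Tris, 137 mM NaCl pH 7.4, 5% DMSO, top concentration 500 μM, then S-2302 added ([…]). Absorbance at 405 nm read kinetically for 3 h; IC50 from initial rates, converted to Ki by Cheng-Prusoff.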

The target of another experiment is T2, thrombin (Homo sapiens, UniProt P00734).
T2 construct: FXa (5 nM) and thrombin (5 nM)
Kind of experiment: Determination of selectivity: thrombin inhibition, chromogenic substrate GPR assay. The settings on record: fold selectivity for FXIIa over thrombin. An outline of the steps:
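Thrombin (5 nM) preincubated with compound 10 min at 37 °C in 50 mM Tris, 137 mM NaCl, pH 7.4, 5% DMSO, then GPR substrate ([…]) added. Absorbance at 405 nm read kinetically for 3 h; IC50 from initial rates, converted to Ki via Ki=IC50/(1+[S]/Km).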

The Ki is a dissociation constant, usually derived from enzyme kinetics or from competition with a known ligand. Lower therefore signals a stronger hold on the target. `Cn1nnc2cc(CNC(=O)[C@@H]3CC(Cc4ccnc(F)c4)CN3C(=O)[C@H](N)CCC(=O)N3CCCC3)ccc21` (stereo partly drawn) [Example M05314]: the “FXa (human)/FXIIa alpha (human)” value at FXa is given as “∘∘∘”. At FXIIa, this compound registered a Ki of 200 to 2000 nM. Further, the “Thrombin (human)/FXIIa alpha (human)” value on thrombin was “++ (fold selectivity value of 10 to 100)”.
On to `COc1ccc(C[C@@H]2C[C@@H](C(=O)NCc3cc4cnccc4[nH]3)N(C(=O)C3NCCc4cc(OC)ccc43)C2)cc1` (single isomer, unassigned) [Example M00961], for which the “FXa (human)/FXIIa alpha (human)” value at FXa is reported as “∘∘∘”. This compound had a Ki at FXIIa of under 200 nM. In addition, on thrombin, the “Thrombin (human)/FXIIa alpha (human)” value is on record as “+++ (fold selectivity values greater than 100)”.
On the same counts, the results for `COc1ccc(C[C@@H]2C[C@@H](C(=O)NCc3ccc4c(c3)nnn4C)N(C(=O)[C@H](N)CCc3ccc(F)cc3)C2)cc1` [Example M00949] are “∘∘”, 200 to 2000 nM and “+++ (fold selectivity values greater than 100)”.
The corresponding values for `Cn1nnc2cc(CNC(=O)[C@@H]3C[C@@H](Cc4cccnc4)CN3C(=O)[C@H]3C[C@@H](c4ccccc4)CN3)ccc21` [Example M05338] are “∘∘”, over 2000 nM and “++ (fold selectivity value of 10 to 100)”.
The corresponding values for `Cn1nnc2cc(CNC(=O)[C@@H]3CC(Cc4ccc(F)c(Cl)c4F)CN3C(=O)[C@H](N)CCC(=O)N3CCCC3)ccc21` (stereo partly drawn) [Example M05295] are “∘∘∘”, 200 to 2000 nM and “+++ (fold selectivity values greater than 100)”.
With `NCc1ccc(CNC(=O)[C@@H]2C[C@H](O)CN2C(=O)[C@H](N)CCc2ccccc2)cn1` [Example M05054], the “FXa (human)/FXIIa alpha (human)” value at FXa was “∘∘”. This compound returned a Ki at FXIIa of over 2000 nM. Also, the “Thrombin (human)/FXIIa alpha (human)” value on thrombin is listed as “++ (fold selectivity value of 10 to 100)”.
The corresponding values for `COc1ccc(C[C@@H]2C[C@@H](C(=O)NCc3ccc4c(c3)nnn4C)N(C(=O)[C@H]3CC(c4cccnc4C)CN3)C2)cc1` (stereo partly drawn) [Example M05406] are “∘∘∘”, 200 to 2000 nM and “+++ (fold selectivity values greater than 100)”.
Consider `COc1ccc2c(c1)CCNC2C(=O)N1C[C@H](Cc2ccncc2)C[C@H]1C(=O)NCc1ccc2c(c1)nnn2C` (stereo partly drawn) [Example M05462], for which, on FXa, the “FXa (human)/FXIIa alpha (human)” value is reported as “∘∘∘”. In addition, the Ki on FXIIa lay within 200 to 2000 nM. Further, at thrombin, the “Thrombin (human)/FXIIa alpha (human)” value was “+++ (fold selectivity values greater than 100)”.
On the same counts, the results for `COc1cc(CNC(=O)[C@@H]2C[C@H](O)CN2C(=O)[C@H](N)CCc2ccccc2)ccc1CN` [Example M05056] are “∘∘∘”, 200 to 2000 nM and “+++ (fold selectivity values greater than 100)”.
On the same counts, the results for `Cn1ncc2cc(CNC(=O)[C@@H]3C[C@@H](Cc4ccncc4)CN3C(=O)[C@H](N)CCC(=O)N3CCCC3)ccc21` [Example M05244] are “∘∘∘”, under 200 nM and “+++ (fold selectivity values greater than 100)”.
In the case of `COc1ccc(C[C@@H]2C[C@@H](C(=O)NCc3ccc4c(c3)nnn4C)N(C(=O)[C@H](N)CCC(=O)N3C4CCC3C(=O)NC4)C2)cc1` (stereo partly drawn) [Example M05460], the “FXa (human)/FXIIa alpha (human)” value at FXa is listed as “∘∘∘”. Further, the Ki on FXIIa fell in the range of 200 to 2000 nM. The “Thrombin (human)/FXIIa alpha (human)” value on thrombin is listed as “+++ (fold selectivity values greater than 100)”.
The corresponding values for `N[C@H](CCc1ccccc1)C(=O)N1CCC[C@H]1C(=O)NCc1ccc2nccn2c1` [Example M05021] are “∘∘”, over 2000 nM and “+ (fold selectivity values less than 10)”.
The corresponding values for `COc1ccc(C[C@@H]2C[C@@H](C(=O)NCc3ccc4c(c3)nnn4C)N(C(=O)[C@H]3C[C@@H](N4CCCCC4)CN3)C2)cc1` [Example M00955] are “∘∘∘”, 200 to 2000 nM and “+++ (fold selectivity values greater than 100)”.
On the same counts, the results for `COc1ccc(C[C@@H]2C[C@@H](C(=O)NCc3ccc4c(c3)nnn4C)N(C(=O)[C@H]3C[C@@H](c4ccccc4)CN3)C2)cc1F` [Example M05352] are “∘∘∘”, 200 to 2000 nM and “+++ (fold selectivity values greater than 100)”.
Consider `Cc1ccc(C[C@@H]2C[C@@H](C(=O)NCc3ccc4c(c3)nnn4C)N(C(=O)[C@H]3C[C@@H](c4ccccc4)CN3)C2)cc1` [Example M05328], for which the “FXa (human)/FXIIa alpha (human)” value at FXa is on record as “∘∘∘”. This compound also came in with a Ki on FXIIa of 200 to 2000 nM. The “Thrombin (human)/FXIIa alpha (human)” value at thrombin was “++ (fold selectivity value of 10 to 100)”.
For `Cn1nnc2cc(CNC(=O)[C@@H]3C[C@@H](Cc4cccc(Cl)c4)CN3C(=O)[C@H]3C[C@@H](c4ccccc4)CN3)ccc21` [Example M05335], the “FXa (human)/FXIIa alpha (human)” value at FXa is “∘∘”. Further, at FXIIa, the Ki is over 2000 nM. Further, on thrombin, the “Thrombin (human)/FXIIa alpha (human)” value was “++ (fold selectivity value of 10 to 100)”.
The corresponding values for `Cn1nnc2cc(CNC(=O)[C@@H]3C[C@@H](Cc4ccc(Br)cc4)CN3C(=O)[C@H]3C[C@@H](c4ccccc4)CN3)ccc21` [Example M05342] are “∘∘∘”, 200 to 2000 nM and “++ (fold selectivity value of 10 to 100)”.
The corresponding values for `Cn1nnc2cc(CNC(=O)[C@@H]3C[C@@](O)(c4ccc(F)c(F)c4)CN3C(=O)[C@H](N)CCc3ccccc3)ccc21` [Example M05128] are “∘∘”, over 2000 nM and “++ (fold selectivity value of 10 to 100)”.
The corresponding values for `Cn1nnc2cc(CNC(=O)[C@@H]3C[C@@H](Cc4cccc(-c5ccncc5)c4)CN3C(=O)[C@H](N)CCC(=O)N3CCCC3)ccc21` [Example M05323] are “∘∘∘”, under 200 nM and “+++ (fold selectivity values greater than 100)”.
With `COc1ccc(C[C@@H]2C[C@@H](C(=O)NCc3ccc4c(c3)nnn4C)N(C(=O)[C@H](N)CCC(=O)N3C4CCC3COC4)C2)cc1` [Example M05411], the “FXa (human)/FXIIa alpha (human)” value on FXa is on record as “∘∘∘”. In addition, the Ki on FXIIa lay in the range of 200 to 2000 nM. In addition, the “Thrombin (human)/FXIIa alpha (human)” value on thrombin is “+++ (fold selectivity values greater than 100)”.
On the same counts, the results for `Cn1nnc2cc(CNC(=O)[C@@H]3C[C@H](C(F)(F)F)CN3C(=O)[C@H](N)CCc3ccccc3)ccc21` [Example M05102] are “∘∘”, over 2000 nM and “++ (fold selectivity value of 10 to 100)”.
The corresponding values for `CCOc1ccc(C[C@@H]2C[C@@H](C(=O)NCc3ccc4c(c3)nnn4C)N(C(=O)[C@H]3C[C@@H](c4ccccc4)CN3)C2)cc1` [Example M05382] are “∘∘∘”, 200 to 2000 nM and “+++ (fold selectivity values greater than 100)”.
The corresponding values for `COc1cc(CNC(=O)[C@@H]2C[C@H](C)CN2C(=O)[C@H](N)CCc2ccccc2)ccc1CN` [Example M05073] are “∘∘”, 200 to 2000 nM and “+ (fold selectivity values less than 10)”.
For `COc1ccc(C[C@@H]2C[C@@H](C(=O)NCc3ccc4c(c3)nnn4C)N(C(=O)[C@H]3CC(c4cncn4C)CN3)C2)cc1` (stereo partly drawn) [Example M05446], the “FXa (human)/FXIIa alpha (human)” value on FXa is “∘∘”. This compound also yielded a Ki at FXIIa of over 2000 nM. The “Thrombin (human)/FXIIa alpha (human)” value at thrombin was “++ (fold selectivity value of 10 to 100)”.
The corresponding values for `COc1ccc(C[C@@H]2C[C@@H](C(=O)NCc3ccc4c(c3)nnn4C)N(C(=O)[C@H](N)CCC(=O)N3CCCC3C)C2)cc1` (stereo partly drawn) [Example M05391] are “∘∘∘”, under 200 nM and “+++ (fold selectivity values greater than 100)”.

For the origin of these results see patent publication US12336991B2, “Factor XIIA inhibitors” (UNIVERSITY OF LEEDS, priority 2018, dated 2025).
